The text below walks through data of patent US8906829B2, “Synergistic algicidal compositions including hydrazone derivatives and copper” (Dow AgroSciences LLC, priority 2010, dated 2014).

Structures are written as SMILES.

For orientation: melting point means the temperature of the solid-liquid transition.

One data set relates to C. reinhardtii CC-1928. The data set is described as follows: Effect of copper on activity of hydrazones: in vitro growth inhibition of C. reinhardtii in TAP Cu minus / TAP Cu plus medium (Example 10). Particulars: test compound 1 μg/mL, 48 h; for inhibition of growth at 1 µg/mL: Chlamydomonas reinhardtii, TAP Cu minus medium, read-out: % Inhn. Minus Copper Observed; for % Inhn. Plus Copper Observed: TAP Cu plus medium (CuCl2). It counts as cell-based, Chlamydomonas reinhardtii. An outline of the steps: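 Washed cells (suspension 2×10^5 spores per mL) added to compound at 1 μg/mL in Chelex-treated TAP Cu minus or TAP Cu plus (20 μM CuCl2). After 48 h at 27 °C, growth read by light scattering; % inhibition vs compound-free wells, plus-Cu predicted values by Colby formula from minus-Cu data.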

For another data set, the system named is C. reinhardtii. The data set is described as follows: Growth inhibition of C. reinhardtii by hydrazones and isolated metal-hydrazone complexes, TAP Cu minus medium (Example 12). It is filed as cell-based, Chlamydomonas reinhardtii. Particulars: for inhibition of growth at 1 µg/mL: Chlamydomonas reinhardtii, parent hydrazone 1 μg/mL, read-out: Hydrazone % Inhn. On the procedure: In vitro toxicity assays against C. reinhardtii CC-1928 (wild type mt+137c green in dark subclone) obtained from the Chlamydomonas Resource Center at Duke University were conducted using TAP liquid growth medium described by Gorman and Levine Proc. Natl. Acad. Sci. USA 1965, 54, 1665-1669 except that CuSO4.5H2O, normally included as a component of Hutner's trace element stock solution (Hutner et al. Proc. Am. Philos. Soc. 1950, 94, 152-170), was omitted. The TAP medium lacking Cu (TAP Cu minus) was prepared by adding 400 mg NH4Cl, 10 mL of 100× Tris-Acetate (242 g Tris-base and 100 mL glacial acetic acid in 1000 mL milli Q water), and 8.3 mL of 120.5× phosphate buffer (14.34 g K2HPO4 and 7.26 g KH2PO4 in 1000 mL milli Q water) to milli Q water to make a total volume of 1 liter. The medium was treated with 0.5 g Chelex 100 resin (Bio-Rad Analytical grade, 50-100 mesh, sodium form, cat#142-2822) by stirring at room temperature for 1 hour. 900 mL were decanted and 45.9 mg of CaCl2.2H2O, 90 mg of MgSO4.7H2O and 0.9 mL Hutner's trace elements lacking CuSO4.5H2O were added and the solution was filter-sterilized. Medium containing copper (TAP Cu plus) was prepared by adding CuCl2.2H2O to the TAP Cu minus medium at 20 μM. Test compounds were dissolved in dimethylsulfoxide (DMSO) at 2 mg/mL then dilutions in TAP Cu minus and TAP Cu plus media were prepared in sterilized microcentrifuge tubes at 2 μg/mL. 100 μL aliquots of diluted compound were dispensed into flat-bottomed 96-well microtiter plates. C. reinhardtii was maintained under 12 h of light on TAP agar plates at 18° C. A loopful of cells was added to 50 mL of TAP Cu minus medium and the culture incubated with shaking at 200 rpm at 27° C. for 24 h. The culture (10 to 20 mL aliquot) was centrifuged in a bench centrifuge at 2000 rpm for 2 min. The resulting cell pellet was resuspended in 5 mL sterile milli Q water (which had been treated with Chelex 100 resin using 0.5 g resin per liter of water by stirring at room temperature for 1 h), and recentrifuged. The cells were resuspended in TAP Cu minus medium, and the suspension adjusted to 2×10^5 spores per mL. Microtiter plates containing compounds as described above were inoculated with 100 μL of this cell suspension and the plates incubated at 27° C. for 48 h before assessing algal growth by measuring light scattering in a NepheloStar plate-reader. Growth inhibition was determined by comparing growth in the presence of test compound with growth in control wells lacking test compound. Hydrazones and their isolated metal complexes were compared with respect to their in vitro activity toward C. reinhardtii and the cyanobacterium (blue-green alga) Synechocystis sp. strain 6803. Metal complexes of hydrazones were prepared by precipitation from ethanol with various metal salts at 1:1, 2:1 or 3:1 molar ratios, as described in general by Ainscough, Brodie, Dobbs, Ranford, and Waters (Inorganica Chimica Acta 1998, 267, 27-38, which is expressly incorporated by reference herein). In vitro assays against C. reinhardtii were conducted as described in Example 10 using TAP Cu minus medium. Growth inhibition was determined by comparing growth in the presence of test compound with growth in control wells lacking test compound. Results for growth inhibition of C. reinhardtii by hydrazones and corresponding isolated metal complexes (each at 1 μg/mL) are shown in Table 6.

Data set [1] relates to Synechocystis sp. strain 6803. The data set is described as follows: Growth inhibition of Synechocystis by hydrazones and isolated metal-hydrazone complexes, BG-11 Cu minus medium (Example 12). It counts as cell-based. Particulars: Synechocystis, Test Concn. 0.05 μg/ml, read-out: Hydrazone % Inhn. On the procedure: In vitro toxicity assays against the cyanobacterium (blue-green alga) Synechocystis sp. strain 6803 were conducted using BG-11 medium except that copper micronutrient, normally included as CuSO4.5H2O, was omitted. The medium, termed BG-11 Cu minus, was prepared by dissolving 1.5 g NaNO3, 40 mg K2HPO4, 6 mg citric acid, 1 mg Na2EDTA and 20 mg Na2CO3 in 1 liter of milli Q water and treating the solution with 0.5 g Chelex 100 resin (Bio-Rad Analytical grade, 50-100 mesh, sodium form, cat#142-2822) by stifling at room temperature for 1 h. 900 mL were decanted and 67.5 mg MgSO4.7H2O, 32.4 mg […], 5.4 mg ferric ammonium citrate and 0.9 mL trace metal mix A5 without copper (2.86 g H3BO3, 1.81 g MnCl2.4H2O, 222 mg ZnSO4.7H2O, 390 mg Na2MoO4.2H2O and Co(NO3)2.6H2O in 1 L Milli Q water) was added. The pH was adjusted to 7.1 and the medium was filter-sterilized. Medium containing copper (BG-11 Cu plus) was prepared by adding CuCl2.2H2O to the BG-11 Cu minus medium at 0.2 μM. Test compounds were dissolved in dimethylsulfoxide (DMSO) at 2 mg/mL then appropriate dilutions in BG-11 Cu minus and BG-11 Cu plus media were prepared in sterilized microcentrifuge tubes. 100 μL aliquots were dispensed into flat-bottomed 96-well microtiter plates. Synechocystis was maintained under 24 h of light on BG-11 agar plates at 27° C. A loopful of cells was added to 50 mL of BG-11 Cu minus growth medium and the culture was incubated with shaking at 200 rpm at 27° C. for 24 h. The culture (10 to 20 mL aliquot) was centrifuged in a bench centrifuge at 2400 rpm for 2 min. The resulting cell pellet was resuspended in 5 mL sterile milli Q water (which had been treated with Chelex 100 resin using 0.5 g resin per liter of water by stirring at room temperature for 1 h), and recentrifuged. The cells were resuspended in BG-11 Cu minus medium, and the suspension adjusted to 4×10^5 spores per mL. Microtiter plates containing compounds as described above were inoculated with 100 μL of this cell suspension and the plates incubated at 27° C. for 72 h before assessing algal growth by measuring light scattering in a NepheloStar plate reader. Growth inhibition was determined by comparing growth in the presence of test compound with growth in control wells lacking test compound. Hydrazones and their isolated metal complexes were compared with respect to their in vitro activity toward C. reinhardtii and the cyanobacterium (blue-green alga) Synechocystis sp. strain 6803. Metal complexes of hydrazones were prepared by precipitation from ethanol with various metal salts at 1:1, 2:1 or 3:1 molar ratios, as described in general by Ainscough, Brodie, Dobbs, Ranford, and Waters (Inorganica Chimica Acta 1998, 267, 27-38, which is expressly incorporated by reference herein). In vitro assays against Synechocystis were conducted as described in Example 11 using BG-11 Cu minus medium. Growth inhibition was determined by comparing growth in the presence of test compound with growth in control wells lacking test compound.

Regarding `O=C(N/N=C/c1cc(Cl)cc(Cl)c1O)c1ccc(Cl)cc1` [Compound 64], in the data set on C. reinhardtii CC-1928, the inhibition of growth at 1 µg/mL is -5% and the “% Inhn. Plus Copper Observed” value amounted to 97%. The inhibition of growth at 1 µg/mL in the data set on C. reinhardtii was -5%.

`C/C(=N\NC(=O)c1cccc(Cl)c1)c1cc(Cl)cc(Cl)c1O` [Compound 65] returned a melting point of 245 to 246 °C. Moreover, in the data set on C. reinhardtii CC-1928, the inhibition of growth at 1 µg/mL was -5% and the “% Inhn. Plus Copper Observed” value amounted to 97%. Also, the inhibition of growth at 1 µg/mL in the data set on C. reinhardtii was -5%.

The compound `O=C(N/N=C/c1cc(Cl)cc(C(F)(F)F)c1O)c1ccc(Cl)cc1` [Compound 66] showed a melting point of 232 to 234 °C. Also, in the data set with C. reinhardtii CC-1928, the inhibition of growth at 1 µg/mL was -4% and the “% Inhn. Plus Copper Observed” value was 97%. Also, the inhibition of growth at 1 µg/mL in the data set on C. reinhardtii is -4%.

Compound `O=C(N/N=C/c1cc(C(F)(F)F)ccc1O)c1ccccc1` [Compound 68] registered a melting point of 214 to 217 °C. Also, the inhibition of growth at 0.05 µg/mL in data set [1] was determined as 16%.

Turning to `C/C(=N\NC(=O)c1cccc(C)c1)c1cc(Cl)cc(Cl)c1O.[Cl-].[Cl-].[Cu+2]` [Compound 90], the “Complex % Inhn.” value with C. reinhardtii (isolated metal complex 1 μg/mL) worked out at 49%.
